PubChem BioAssay (NCI)
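A five-concentration, 48-hour dose response in 96-well plates underlies each endpoint, interpolated linearly between surrounding concentrations. TGI is the concentration that stops growth completely.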

Columns and labels:
Test in all cases: NCI-60 cell line screen, 48 h
MDA-MB-231 breast = tested on: MDA-MB-231 breast
MALME-3M melanoma = tested on: MALME-3M melanoma
MOLT-4 leukemia = tested on: MOLT-4 leukemia
OVCAR-3 ovarian = tested on: OVCAR-3 ovarian
HOP-92 NSCLC = tested on: HOP-92 NSCLC
NCI/ADR-RES ovarian = tested on: NCI/ADR-RES ovarian
COLO 205 colon = tested on: COLO 205 colon
HS 578T breast = tested on: HS 578T breast
CAKI-1 renal = tested on: CAKI-1 renal
UACC-62 melanoma = tested on: UACC-62 melanoma
MDA-MB-435 = tested on: MDA-MB-435
OVCAR-4 ovarian = tested on: OVCAR-4 ovarian
ACHN renal = tested on: ACHN renal
NCI-H226 lung = tested on: NCI-H226 lung
NCI-H460 lung = tested on: NCI-H460 lung
BT-549 breast = tested on: BT-549 breast
SW-620 colon = tested on: SW-620 colon
CCRF-CEM leukemia = tested on: CCRF-CEM leukemia
MDA-N = tested on: MDA-N
SN12C renal = tested on: SN12C renal
HCT-15 colon = tested on: HCT-15 colon
HCC-2998 colon = tested on: HCC-2998 colon
LOX IMVI melanoma = tested on: LOX IMVI melanoma
HOP-62 NSCLC = tested on: HOP-62 NSCLC
OVCAR-8 ovarian = tested on: OVCAR-8 ovarian
TK-10 renal = tested on: TK-10 renal
SR leukemia = tested on: SR leukemia
HCT-116 colon = tested on: HCT-116 colon
SK-MEL-2 melanoma = tested on: SK-MEL-2 melanoma
MCF7 breast = tested on: MCF7 breast
U251 CNS = tested on: U251 CNS
HL-60(TB) leukemia = tested on: HL-60(TB) leukemia
NCI-H522 lung = tested on: NCI-H522 lung
IGROV1 ovarian = tested on: IGROV1 ovarian
UO-31 renal = tested on: UO-31 renal
KM12 colon = tested on: KM12 colon
PC-3 prostate = tested on: PC-3 prostate
A498 renal = tested on: A498 renal
SNB-75 CNS = tested on: SNB-75 CNS
SF-295 CNS = tested on: SF-295 CNS
K-562 leukemia = tested on: K-562 leukemia
SK-MEL-5 melanoma = tested on: SK-MEL-5 melanoma
EKVX NSCLC = tested on: EKVX NSCLC
NCI-H23 lung = tested on: NCI-H23 lung
RPMI-8226 leukemia = tested on: RPMI-8226 leukemia
SF-539 CNS = tested on: SF-539 CNS
786-0 renal = tested on: 786-0 renal
M14 melanoma = tested on: M14 melanoma
OVCAR-5 ovarian = tested on: OVCAR-5 ovarian
A549 NSCLC = tested on: A549 NSCLC
SF-268 CNS = tested on: SF-268 CNS
UACC-257 melanoma = tested on: UACC-257 melanoma
HT29 colon = tested on: HT29 colon
DU-145 prostate = tested on: DU-145 prostate
SNB-19 CNS = tested on: SNB-19 CNS
T-47D breast = tested on: T-47D breast

SMILES: COC(=O)C1=C(OC)[C@H]2C#C/C=C\C#C[C@@H]3Nc4c(cc(O)c5c4C(=O)c4ccccc4C5=O)[C@]24O[C@@]34[C@H]1C
- TGI (MDA-MB-231 breast): 17.9 nM
- TGI (MALME-3M melanoma): 103 nM
- TGI (MOLT-4 leukemia): < 10 nM
- TGI (OVCAR-3 ovarian): 113 nM
- TGI (HOP-92 NSCLC): < 10 nM
- TGI (NCI/ADR-RES ovarian): < 10 nM
- TGI (COLO 205 colon): 14 nM
- TGI (HS 578T breast): 3.82 µM
- TGI (CAKI-1 renal): < 10 nM
- TGI (UACC-62 melanoma): < 10 nM
- TGI (MDA-MB-435): 44.8 nM
- TGI (OVCAR-4 ovarian): 200 nM
- TGI (ACHN renal): < 10 nM
- TGI (NCI-H226 lung): < 0.01 µM
- TGI (NCI-H460 lung): > 100 µM
- TGI (BT-549 breast): < 0.0339 µM
- TGI (SW-620 colon): 48.6 nM
- TGI (CCRF-CEM leukemia): < 0.01 µM
- TGI (MDA-N): 11.3 nM
- TGI (SN12C renal): < 10 nM
- TGI (HCT-15 colon): 14.7 nM
- TGI (HCC-2998 colon): < 13.5 nM
- TGI (LOX IMVI melanoma): < 10 nM
- TGI (HOP-62 NSCLC): < 10 nM
- TGI (OVCAR-8 ovarian): < 10 nM
- TGI (TK-10 renal): 176 nM
- TGI (SR leukemia): < 0.01 µM
- TGI (HCT-116 colon): 7.6 µM
- TGI (SK-MEL-2 melanoma): 206 nM
- TGI (MCF7 breast): 126 nM
- TGI (U251 CNS): < 13.3 nM
- TGI (HL-60(TB) leukemia): < 0.01 µM
- TGI (NCI-H522 lung): 17.7 nM
- TGI (IGROV1 ovarian): 167 nM
- TGI (UO-31 renal): < 10 nM
- TGI (KM12 colon): 47.5 nM
- TGI (PC-3 prostate): 138 nM
- TGI (A498 renal): < 0.01 µM
- TGI (SNB-75 CNS): < 10 nM
- TGI (SF-295 CNS): < 10 nM
- TGI (K-562 leukemia): 13.9 nM
- TGI (SK-MEL-5 melanoma): < 14.9 nM
- TGI (EKVX NSCLC): 33.5 nM
- TGI (NCI-H23 lung): < 10 nM
- TGI (RPMI-8226 leukemia): 18.8 nM
- TGI (SF-539 CNS): < 10 nM
- TGI (786-0 renal): < 10 nM
- TGI (M14 melanoma): < 10 nM
- TGI (OVCAR-5 ovarian): 31.1 nM
- TGI (A549 NSCLC): 111 nM
- TGI (SF-268 CNS): < 34.1 nM
- TGI (UACC-257 melanoma): 36.3 nM
- TGI (HT29 colon): < 40.9 nM
- TGI (DU-145 prostate): < 10 nM

SMILES: c1ccc2c(c1)Nc1cccc3c1c-2nc1ccccc13
- TGI (MDA-MB-231 breast): 2690 nM
- TGI (MOLT-4 leukemia): 1780 nM
- TGI (ACHN renal): 2010 nM
- TGI (NCI-H226 lung): > 100 µM
- TGI (BT-549 breast): > 100 µM
- TGI (CCRF-CEM leukemia): 4.81 µM
- TGI (MDA-N): 2050 nM
- TGI (SN12C renal): 2790 nM
- TGI (SNB-19 CNS): > 100 µM
- TGI (SR leukemia): 4.83 µM
- TGI (HCT-116 colon): 1.79 µM
- TGI (HL-60(TB) leukemia): 3.3 µM
- TGI (UO-31 renal): 2830 nM
- TGI (KM12 colon): 3440 nM
- TGI (T-47D breast): 5.09 µM
- TGI (PC-3 prostate): 2430 nM
- TGI (A498 renal): > 100 µM
- TGI (K-562 leukemia): 2920 nM
- TGI (RPMI-8226 leukemia): 3480 nM
- TGI (DU-145 prostate): 2600 nM
